According to ChEMBL document CHEMBL1201862, “PubChem BioAssay data set” (2004):
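Growth conditions: 96-well plates. Treatment: test compound, 48 hours, 5 concentrations. Analysis: linear interpolation between bracketing concentrations; unreached endpoints set to highest concentration. GI50 marks 50% less growth.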 The source made the active and inactive calls. Rule as the data show it: active = GI50 up to about 1.1 µM and inactive = higher.

Key:
Assay in all cases: inhibition of tumour cell growth, NCI panel, 48 h
SK-MEL-28 = test system: SK-MEL-28
T47D = test system: T47D
TK-10 = test system: TK-10
CCRF-CEM = test system: CCRF-CEM
HOP-62 = test system: HOP-62
KM12 = test system: KM12
NCI-H522 = test system: NCI-H522
SF-268 = test system: SF-268
MCF7 = test system: MCF7
SNB-19 = test system: SNB-19
Malme-3M = test system: Malme-3M
SF-295 = test system: SF-295
UACC-62 = test system: UACC-62
SK-MEL-5 = test system: SK-MEL-5
UACC-257 = test system: UACC-257
LOX IMVI = test system: LOX IMVI
A549 = test system: A549
EKVX = test system: EKVX
786-0 = test system: 786-0
RPMI-8226 = test system: RPMI-8226

SMILES	GI50 (SK-MEL-28)	GI50 (T47D)	GI50 (TK-10)	GI50 (CCRF-CEM)	GI50 (HOP-62)	GI50 (KM12)	GI50 (NCI-H522)	GI50 (SF-268)	GI50 (MCF7)	GI50 (SNB-19)	GI50 (Malme-3M)	GI50 (SF-295)	GI50 (UACC-62)	GI50 (SK-MEL-5)	GI50 (UACC-257)	GI50 (LOX IMVI)	GI50 (A549)	GI50 (EKVX)	GI50 (786-0)	GI50 (RPMI-8226)
Cc1cn(C2OC(CO)C(O)C2F)c(=O)[nH]c1=O (stereo not given)	> 100 µM (inactive)	> 100 µM (inactive)	> 100 µM (inactive)	12.2 µM (inactive)	95.3 µM (inactive)	> 100 µM (inactive)	19.3 µM (inactive)	> 100 µM (inactive)	> 100 µM (inactive)	> 100 µM (inactive)	> 100 µM (inactive)	> 100 µM (inactive)	64.3 µM (inactive)	> 100 µM (inactive)	> 100 µM (inactive)	24.1 µM (inactive)	61.5 µM (inactive)	> 100 µM (inactive)	87.5 µM (inactive)	–
N/N=C1N=C(Cl)/C(=C/c2ccco2)N\1	60.8 µM (inactive)	40.4 µM (inactive)	71.9 µM (inactive)	31.4 µM (inactive)	59.2 µM (inactive)	28.2 µM (inactive)	22.7 µM (inactive)	34.3 µM (inactive)	56 µM (inactive)	50.5 µM (inactive)	52.5 µM (inactive)	38.1 µM (inactive)	–	34 µM (inactive)	52.8 µM (inactive)	27.9 µM (inactive)	38 µM (inactive)	> 100 µM (inactive)	61.5 µM (inactive)	16.8 µM (inactive)
CN(C)Cc1cc(C(C)(C)C)cc(C2CCCCC2)c1O	13.2 µM (inactive)	3.58 µM (inactive)	15.5 µM (inactive)	13.5 µM (inactive)	18 µM (inactive)	13.6 µM (inactive)	20.2 µM (inactive)	16.8 µM (inactive)	18.3 µM (inactive)	13 µM (inactive)	2.15 µM (inactive)	–	16.1 µM (inactive)	14.4 µM (inactive)	10.1 µM (inactive)	15.2 µM (inactive)	13.6 µM (inactive)	11.9 µM (inactive)	20.7 µM (inactive)	< 0.01 µM (active)
COC(=O)C1=NN2c3ccccc3C(=O)OCCC2C1 (stereo not given)	> 100 µM (inactive)	> 100 µM (inactive)	> 100 µM (inactive)	> 100 µM (inactive)	> 100 µM (inactive)	> 100 µM (inactive)	> 100 µM (inactive)	> 100 µM (inactive)	> 100 µM (inactive)	–	> 100 µM (inactive)	> 100 µM (inactive)	> 100 µM (inactive)	> 100 µM (inactive)	> 100 µM (inactive)	> 100 µM (inactive)	> 100 µM (inactive)	> 100 µM (inactive)	> 100 µM (inactive)	> 100 µM (inactive)
CCOC(=O)NC(NC1=NCCS1)(C(=O)OCC)C(F)(F)F (stereo not given)	> 100 µM (inactive)	> 100 µM (inactive)	> 100 µM (inactive)	> 100 µM (inactive)	> 100 µM (inactive)	> 100 µM (inactive)	> 100 µM (inactive)	> 100 µM (inactive)	> 100 µM (inactive)	> 100 µM (inactive)	> 100 µM (inactive)	> 100 µM (inactive)	–	> 100 µM (inactive)	> 100 µM (inactive)	> 100 µM (inactive)	> 100 µM (inactive)	> 100 µM (inactive)	> 100 µM (inactive)	> 100 µM (inactive)
NC(=S)NC/C=C/Cl	–	> 100 µM (inactive)	> 100 µM (inactive)	> 100 µM (inactive)	> 100 µM (inactive)	> 100 µM (inactive)	86.5 µM (inactive)	–	> 100 µM (inactive)	> 100 µM (inactive)	> 100 µM (inactive)	> 100 µM (inactive)	> 100 µM (inactive)	> 100 µM (inactive)	> 100 µM (inactive)	> 100 µM (inactive)	> 100 µM (inactive)	> 100 µM (inactive)	> 100 µM (inactive)	> 100 µM (inactive)
O=[N+]([O-])C(=C(N1CCOCC1)N1CCOCC1)/C(Cl)=C(\Cl)Br	17.4 µM (inactive)	15.7 µM (inactive)	–	2.65 µM (inactive)	> 100 µM (inactive)	31.4 µM (inactive)	2.41 µM (inactive)	23.6 µM (inactive)	> 10 µM (inactive)	> 100 µM (inactive)	16.1 µM (inactive)	> 100 µM (inactive)	–	–	17.3 µM (inactive)	19.3 µM (inactive)	> 100 µM (inactive)	17.1 µM (inactive)	25.4 µM (inactive)	14.5 µM (inactive)
